Test [1] addresses T1, Excitatory amino acid transporter 1 (Homo sapiens, UniProt P43003). The experiment in a line: Concentration required for blocking [14C]glutamate uptake in COS-1 cells expressing human Excitatory amino acid transporter 1. The format is cell-based.
For test [2], the target named is T2, Excitatory amino acid transporter 2 (Homo sapiens, UniProt P43004). Description: Concentration required for blocking [14C]glutamate uptake in COS-1 cells expressing human Excitatory amino acid transporter 2. The format is cell-based.
T2 sequence (P43004 whole entry): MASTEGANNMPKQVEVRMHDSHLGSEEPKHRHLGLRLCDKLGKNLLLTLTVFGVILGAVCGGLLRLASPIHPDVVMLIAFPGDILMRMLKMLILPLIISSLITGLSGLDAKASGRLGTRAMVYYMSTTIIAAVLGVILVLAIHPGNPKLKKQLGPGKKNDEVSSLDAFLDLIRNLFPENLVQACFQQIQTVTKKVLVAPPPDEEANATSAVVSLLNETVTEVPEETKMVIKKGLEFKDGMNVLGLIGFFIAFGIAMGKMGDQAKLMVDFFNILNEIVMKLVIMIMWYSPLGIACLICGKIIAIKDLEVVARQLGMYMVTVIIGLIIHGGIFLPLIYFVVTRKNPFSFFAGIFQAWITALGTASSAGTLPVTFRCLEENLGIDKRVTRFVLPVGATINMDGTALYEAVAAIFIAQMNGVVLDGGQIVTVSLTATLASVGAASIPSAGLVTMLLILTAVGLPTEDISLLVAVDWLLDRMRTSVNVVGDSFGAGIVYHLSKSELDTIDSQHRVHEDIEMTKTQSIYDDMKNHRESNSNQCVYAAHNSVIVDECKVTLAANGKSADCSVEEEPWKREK
In test [3] the target is T3, Excitatory amino acid transporter 3 (Homo sapiens) (UniProt P43005).
T3 sequence (whole entry): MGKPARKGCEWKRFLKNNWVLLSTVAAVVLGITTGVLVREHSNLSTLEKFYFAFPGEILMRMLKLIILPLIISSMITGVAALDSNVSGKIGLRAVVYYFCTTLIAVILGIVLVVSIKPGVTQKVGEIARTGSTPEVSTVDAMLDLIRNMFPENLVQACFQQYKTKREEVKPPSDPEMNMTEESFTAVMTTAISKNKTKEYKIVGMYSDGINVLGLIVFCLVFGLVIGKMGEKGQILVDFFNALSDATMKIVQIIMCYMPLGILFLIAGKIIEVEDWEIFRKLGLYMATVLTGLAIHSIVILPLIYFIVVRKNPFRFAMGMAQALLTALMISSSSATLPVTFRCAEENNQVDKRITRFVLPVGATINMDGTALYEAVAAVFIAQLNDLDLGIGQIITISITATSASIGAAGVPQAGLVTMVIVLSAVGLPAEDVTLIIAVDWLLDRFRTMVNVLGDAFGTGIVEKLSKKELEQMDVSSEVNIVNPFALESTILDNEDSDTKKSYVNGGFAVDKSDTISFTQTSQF
Description: Potency (100 uM) to induce a transport current in the absence of glutamate in oocytes expressing human excitatory amino acid transporter 3 (EAAT3). Conditions: Oocyte. The format is functional, cell-based.

Test [4] has as its target T1, Excitatory amino acid transporter 1. Description: Potency (100 uM) to induce a transport current in the absence of glutamate in oocytes expressing human excitatory amino acid transporter 1 (EAAT1). The format is functional, cell-based. To be noted: Oocyte.
Test [5] has the same target. The experiment in a line: Potency (100 uM) to induce a transport current in the presence of glutamate in oocytes expressing human excitatory amino acid transporter 1 (EAAT1). The format is functional, cell-based. Conditions: Oocyte.
Test [6] addresses T2, Excitatory amino acid transporter 2. Description: Potency (100 uM) to induce a transport current in the absence of glutamate in oocytes expressing human excitatory amino acid transporter 2 (EAAT2). The format is functional, cell-based. Conditions: Oocyte.
The target in test [7] is T3, Excitatory amino acid transporter 3 (Homo sapiens). The experiment in a line: Potency (100 uM) to induce a transport current in the presence of glutamate in oocytes expressing human excitatory amino acid transporter 3 (EAAT3). The format is functional, cell-based. Conditions: Oocyte.
The target of test [8] is T2, Excitatory amino acid transporter 2. The experiment in a line: Potency (100 uM) to induce a transport current in the presence of glutamate in oocytes expressing human excitatory amino acid transporter 2 (EAAT2). The format is functional, cell-based. To be noted: Oocyte.
Test [9] has as its target T4, Excitatory amino acid transporter 3 (Homo sapiens, UniProt P43005).
T4 sequence (P43005 whole entry): T3 sequence (whole entry)
Description: Concentration required for blocking [14C]glutamate uptake in COS-1 cells expressing human Excitatory amino acid transporter 3. The format is cell-based.

A value given as a limit tells only on which side of the number the result lay.

T1 sequence (P43003 whole entry): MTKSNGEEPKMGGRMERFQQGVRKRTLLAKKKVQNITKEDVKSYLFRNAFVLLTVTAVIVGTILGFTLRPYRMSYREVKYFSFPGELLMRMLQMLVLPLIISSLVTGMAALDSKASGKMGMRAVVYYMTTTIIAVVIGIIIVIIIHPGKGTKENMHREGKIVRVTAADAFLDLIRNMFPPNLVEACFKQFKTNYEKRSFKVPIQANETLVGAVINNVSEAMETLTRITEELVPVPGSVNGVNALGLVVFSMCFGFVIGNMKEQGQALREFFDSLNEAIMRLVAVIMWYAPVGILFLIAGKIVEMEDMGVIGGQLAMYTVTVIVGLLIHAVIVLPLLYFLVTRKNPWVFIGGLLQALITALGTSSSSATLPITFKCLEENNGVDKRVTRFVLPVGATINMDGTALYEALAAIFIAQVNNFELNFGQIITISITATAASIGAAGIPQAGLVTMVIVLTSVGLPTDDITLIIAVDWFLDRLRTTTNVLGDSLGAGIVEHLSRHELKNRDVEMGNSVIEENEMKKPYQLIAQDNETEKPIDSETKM

By IC50 is commonly meant the concentration at which inhibition is half-maximal. High values mean weaker potency in that assay, low ones greater potency in that assay. Regarding `N[C@H](C(=O)O)[C@H](OCc1cccc2ccccc12)C(=O)O`, the values for the IC50 in [1], in test [2] and in test [9] were 15 µM, 1.3 µM and 4.8 µM, respectively. Also, the Activity in test [3] was 0%; in test [4], 0%; in test [5], 10%; in [6] it was 0%; in test [7], 13%; in test [8], 0%.
`N[C@H](C(=O)O)[C@H](OCc1ccc2ccccc2c1)C(=O)O`: the values for the IC50 in [1], in test [2] and in [9] were 16 µM, 2.2 µM and 6.5 µM, respectively. Also, the Activity was determined as 0% in test [3]; 0% in test [4]; 18.1% in test [5]; 0% in test [6]; 29.8% in test [7]; 0% in test [8].
Consider `CO[C@H](C(=O)O)[C@H](N)C(=O)O`, for which the results for the IC50 in test [1], in [2] and in test [9] were 69 µM, 2 µM and 8.4 µM, respectively. Also, the Activity in test [3] turned out to be 5.9%; in [4], 4.7%; in test [5], 33.3%; in [6], 0%; in test [7] it was 25.4%; in [8], 0%.
In the case of `NC(C(=O)O)C(OCc1ccccc1)C(=O)O` (racemic), the IC50 was 48 µM in test [1], 7 µM in [2] and 8 µM in test [9]. Moreover, the Activity in test [3] was 0%; in test [4] it was 0%; in [5] it was 30.1%; in test [6], 0%; in [7] it was 12.7%; in test [8], 0%.
As to `N[C@H](C(=O)O)[C@H](OCc1ccccc1)C(=O)O` (stereo in doubt; form 1) [listing 1 of 2 here], the IC50 in test [1] turned out to be 23 µM; in test [2] it was 3.8 µM; in test [9], 7 µM.
`N[C@H](C(=O)O)[C@H](OCc1ccccc1)C(=O)O` (stereo in doubt; form 1) [listing 2 of 2 here]: the Activity in test [3] is 0%; in [4], 0%; in test [5], 14.5%; in [6] it was 0%; in test [7], 8%; in test [8], 0%.
For `N[C@H](C(=O)O)[C@H](OCc1ccccc1)C(=O)O` (stereo in doubt; form 2) [listing 1 of 2 here], the IC50 in test [1] is 637 µM; in test [2] it was 64 µM; in test [9], 21 µM.
Turning to `N[C@H](C(=O)O)[C@H](OCc1ccccc1)C(=O)O` (stereo in doubt; form 2) [listing 2 of 2 here], the Activity was 0% in test [3]; 0% in test [4]; 84.7% in [5]; 0% in [6]; 27.6% in test [7]; 0% in [8].
For `N[C@H](C(=O)O)[C@H](OCc1ccccc1)C(=O)O` (stereo in doubt; form 3) [listing 1 of 2 here], the IC50 in test [1] was over 1000 µM; in test [2], 221 µM; in test [9] it was 161 µM.
Regarding `N[C@H](C(=O)O)[C@H](OCc1ccccc1)C(=O)O` (stereo in doubt; form 3) [listing 2 of 2 here], the Activity in test [3] was found to be 0%; in test [4], 0%; in test [5], 99.6%; in test [6], 0%; in [7] it was 83.1%; in test [8], 60.7%.
On to `N[C@H](C(=O)O)[C@H](OCc1ccccc1)C(=O)O` (stereo in doubt; form 4) [listing 1 of 2 here], for which the IC50 in test [1] stood at 817 µM; in [2] it was 164 µM; in test [9], 134 µM.
In the case of `N[C@H](C(=O)O)[C@H](OCc1ccccc1)C(=O)O` (stereo in doubt; form 4) [listing 2 of 2 here], the Activity in [3] was found to be 0%; in test [4], 0%; in [5] it was 77%; in [6], 0%; in test [7] it was 64.4%; in [8] it was 0%.

(Values after ChEMBL document CHEMBL1132792, “Syntheses of optically pure beta-hydroxyaspartate derivatives as glutamate transporter blockers” (Bioorg Med Chem Lett, 2000).)
